Here are results for one substance from publication PMC6930223 (Scientific Reports, 2019).

The test system of data set [1] is hERG1a/Hsp70 complexes. As to the kind of experiment: Co-immunoprecipitation of cg-hERG1a with chaperone. Format: cell-based, human. The following applies: 24 h. As to the method: (§1) The co-immunoprecipitation method was adapted and modified slightly from the previously described methodologies[40],[52]. The treated recombinant cells were incubated for 15 min at room temperature with PBS containing cross-linker 1.5 mM dithiobis (succinimidyl propionate) (DSP, Pierce USA). The cross-linker was quenched by addition of 10 mM Tris (pH 7.5) and incubated for 10 min at room temperature. Cells were detached in 10 ml ice-cold PBS and centrifuged at 300 x g for 5 min at 4 °C. The pellet was then resuspended in 300 µl ice-cold complete diluted RIPA lysis buffer containing 0.1% (v/v) NP40, 50 mM Tris pH 7.5, 150 mM NaCl, 1x PMSF solution, 1x sodium orthovanadate solution and 1x protease inhibitor cocktail solution. Subsequently, the cell suspension was incubated at 4 °C for 30 min with constant agitation and finally centrifuged at 14, 000 rpm for 10 min at 4 °C. The supernatant was saved for total protein quantitation and subsequently for co-immunoprecipitation experiments.
(§2) Briefly, 500 µg of isolated total protein was mixed with 2 µg of hERG1 rabbit polyclonal IgG (Santa Cruz Biotechnology Inc., USA), mouse Hsp70/Hsc70 monoclonal antibody (Santa Cruz Biotechnology Inc., USA) or mouse Hsp90α/β monoclonal antibody (Santa-Cruz Biotechnology Inc., USA) respectively and incubated on ice on a rotary shaker overnight. Subsequently, 30 µl of protein A/G PLUS-agarose immunoprecipitation reagent (Santa Cruz Biotechnology Inc., USA) was added into the mixture, and incubated on ice on a shaker for 8 h and subsequently stored in 4 °C overnight. The mixture was centrifuged at 1500 rpm for 5 min at 4 °C, and the pellet was washed with ice-cold PBST, each time repeating the centrifugation process. Finally, the pellet was resuspended in 25 µl 1x Laemmli sample buffer (Bio-Rad Laboratories Inc., USA) with 2.5% (v/v) β-mercaptoethanol, and then heated at 70 °C for 2 h to reverse cross-linking and to release the immunoprecipitated protein from A/G PLUS-agarose beads. The samples were centrifuged at 1500 rpm for 5 min at 4 °C to pellet the agarose beads and 20 µl of the supernatant was used for subsequent SDS-PAGE and immunoblotting analysis as described previously.
(§3) To analyze the immunoprecipitated proteins, the membrane was probed with rabbit anti-potassium channel Kv11.1 extracellular antibody (1:200) (Sigma-Aldrich, USA), mouse Hsp70/Hsc70 monoclonal antibody (1:10, 000) and mouse Hsp90α/β monoclonal antibody (1:10, 000) in the same container. […] To quantify hERG1/chaperone interactions, image densities of the core-glycosylated (cg) hERG1 protein found in immunoprecipitations with anti-hERG1 antibody were used as a measure of total hERG1a protein present. […]

The test system of data set [2] is hERG1a/Hsp90 complexes. As to the kind of experiment: Co-immunoprecipitation of cg-hERG1a with chaperone. The class given is cell-based, human. The settings on record: 10 µM, 24 h, vs untreated control. As for the experimental part:
as §1, §2, §3

Data set [3] concerns CYP1A2. Also noted: method as in PMID 24174816, PMID 23274770. The settings on record: cited from earlier work.

Turning to mitragynine, the “association of hERG1a/Hsp70” value in data set [1] (1 µM) and in data set [1] (10 μM) was “not significantly affected” throughout. Moreover, the “relative expression of hERG1a/Hsp90 complexes” value in data set [2] was “significantly increased”. For the same substance, in data set [2], the “up-regulation of hERG1a interacting with Hsp90” value is reported as “approximately 2.5 fold”. Also, the “effect on CYP1A2 (induction)” value in data set [3] is recorded as “inductive effect”.
